Several values for one entry are separate records, joined by “and”; a condition that tells them apart may be missing. Equal entries are not always repeated. Results filed as inconclusive are left out. Activity calls are given as the source filed them.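 The calls were made as follows: active = falling signal with fitted half-maximal potency no higher than twice the top valid tested dose; inconclusive = poor fit quality, or flat fit spanning -70% to -30%; inactive = potency over limit, rising signal, or flat fit inside 30%.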
Test system: Cryptococcus neoformans growth, Alamar Blue, 24 h
Experiment: fungal growth arrest, C. neoformans – Alamar Blue, cherry-picks, dose response (AID 686998)

**Q.** For COc1ccc(NC(=O)c2cn(C)c(=O)c3cc(OC)c(OC)cc23)c(OC)c1, which IC50 is on record?
**A.** > 70 µM (inactive)

**Q.** Which IC50 does the source give for C[C@H](CO)N1C[C@H](C)[C@H](CN(C)CC2CCCCC2)Oc2c(NS(C)(=O)=O)cccc2C1=O here?
**A.** 56.4 µM

**Q.** How did the IC50 turn out when COC(=O)C1=C(C)N(Cc2ccc(Cl)cc2)C(=S)NC1c1cccc(OC)c1 (stereo not given) was run?
**A.** 6.55 µM and 8.91 µM

**Q.** For CO[C@@H]1CN(C)C(=O)c2ccc(NC(C)=O)cc2OC[C@@H](C)N(C(=O)Cc2cccnc2)C[C@H]1C, which IC50 is on record?
**A.** > 60 µM (inactive)

**Q.** Which IC50 does the source give for Cc1c(C(=O)NC(=S)Nc2ccc(N3CCOCC3)cc2)cccc1[N+](=O)[O-] here?
**A.** 34.7 µM

**Q.** With CO[C@@H]1CN(C)C(=O)c2ccc(NS(=O)(=O)c3ccc(Oc4ccccc4)cc3)cc2OC[C@H](C)NC[C@H]1C as the molecule, how does the IC50 read?
**A.** 3.78 µM

**Q.** How did the IC50 turn out when CCC(=O)N1[C@H](CN(C)C(C)=O)[C@@H](c2ccc(C3=CCCCC3)cc2)[C@@H]1CO was run?
**A.** 40.4 µM

**Q.** For COc1ccc(C(=O)NC(=S)Nc2ccccc2N2CCCCC2)cc1[N+](=O)[O-], which IC50 is on record?
**A.** 1.49 µM

**Q.** How did the IC50 turn out when COc1ccc(CNC(=S)NCc2ccc(OC(C)C)cc2)cc1 was run?
**A.** 30.4 µM

**Q.** With COC(=O)C1=C(C)N(CC(C)C)C(=S)NC1c1ccc(-c2ccccc2)cc1 (stereo not given) as the molecule, how does the IC50 read?
**A.** 3.78 µM and 3.99 µM

**Q.** Which IC50 does the source give for CC(NC(=O)COc1ccccc1Cl)c1ccccc1 (stereo not given) here?
**A.** 0.88 µM

**Q.** Cc1noc(C)c1NC(=O)N(C)C[C@@H]1Oc2ccc(NC(=O)NC(C)C)cc2CC(=O)N([C@@H](C)CO)C[C@@H]1C was tested. Which IC50 did it give?
**A.** > 70 µM (inactive)

**Q.** With Cc1cccc(C)c1NC(=O)C1(C)CCC(=O)N1CCCn1ccnc1 (stereo not given) as the molecule, how does the IC50 read?
**A.** < 0.26 µM

**Q.** For CCOC(=O)CNC(=O)CSc1ncnc2c1cnn2-c1ccc(Cl)cc1, which IC50 is on record?
**A.** 67.1 µM

**Q.** Which IC50 does the source give for COC(=O)C1=C(C)N(Cc2ccc(F)cc2)C(=S)NC1c1cccc(Cl)c1 (stereo not given) here?
**A.** 10.6 µM

**Q.** For Cc1cc(C)c2nc(N3CCN(C(=O)c4cccs4)CC3)sc2c1, which IC50 is on record?
**A.** 21.9 µM

**Q.** For CC(NC(=O)COc1ccccc1-c1ccccc1)c1ccccc1 (stereo not given), which IC50 is on record?
**A.** 2.53 µM

**Q.** CCc1nc(N2CCCCC2C)c2oc3ccccc3c2n1 (stereo not given) was tested. Which IC50 did it give?
**A.** 17.6 µM

**Q.** For C[C@H](CO)N1C[C@H](C)[C@H](CN(C)Cc2ccccc2F)Oc2cc(C3=CCCC3)ccc2S1(=O)=O, which IC50 is on record?
**A.** 36.3 µM

**Q.** Cc1cc(C)c(NC(=O)CN(C2CCCCC2)C2CCCCC2)c(C)c1 was tested. Which IC50 did it give?
**A.** 32.9 µM

**Q.** For CCc1ccc(C(=O)NC(=S)Nc2ccccc2N2CCOCC2)cc1, which IC50 is on record?
**A.** 9.06 µM

**Q.** COC(=O)C1=C(C)N(Cc2ccc(F)cc2)C(=S)NC1c1cccc(OC)c1 (stereo not given) was tested. Which IC50 did it give?
**A.** 31 µM

**Q.** With COC(=O)C1=C(C)N(Cc2ccc(Br)cc2)C(=S)NC1c1cccc(Br)c1 (stereo not given) as the molecule, how does the IC50 read?
**A.** 6.53 µM

**Q.** For CC(C)NC(=O)Nc1ccc2c(c1)C(=O)N([C@H](C)CO)C[C@H](C)[C@H](CN(C)Cc1ccncc1)OCCCC[C@H](C)O2, which IC50 is on record?
**A.** 54.6 µM

**Q.** Which IC50 does the source give for Cc1ccc(C2CCN(C(=S)NC3CCCCC3)C2)cc1 (stereo not given) here?
**A.** 9.63 µM

**Q.** For CCOC(=O)NC(=S)Nc1ccc(C(C)(C)C)cc1, which IC50 is on record?
**A.** 7.22 µM

**Q.** For COc1ccc(NC(=O)CN2CCN(S(=O)(=O)c3ccc(C(C)C)cc3)CC2)cc1OC, which IC50 is on record?
**A.** 43.7 µM

**Q.** Which IC50 does the source give for CCNC(=O)C[C@H]1CC[C@@H](NC(=O)NC2CCCCC2)[C@H](CO)O1 here?
**A.** 53.1 µM

**Q.** Which IC50 does the source give for C[C@H](CO)N1C[C@H](C)[C@H](CN(C)S(=O)(=O)c2cn(C)cn2)Oc2ncc(/C=C/c3ccccc3)cc2C1=O here?
**A.** 60.1 µM

**Q.** How did the IC50 turn out when C[C@H](CO)N1C[C@H](C)[C@@H](CN(C)C(=O)Nc2ccc3c(c2)OCO3)Oc2ccc(NS(=O)(=O)c3cccs3)cc2C1=O was run?
**A.** 64.4 µM

**Q.** Which IC50 does the source give for CNC[C@@H]1Oc2ccc(NS(=O)(=O)c3ccc(Cl)cc3)cc2C(=O)N([C@H](C)CO)C[C@H]1C here?
**A.** 46.4 µM

**Q.** With CNC[C@@H]1Oc2c(NS(=O)(=O)c3ccc(Cl)cc3)cccc2C(=O)N([C@H](C)CO)C[C@H]1C as the molecule, how does the IC50 read?
**A.** > 70 µM (inactive)

**Q.** With C[C@@H]1CN([C@@H](C)CO)C(=O)c2cc(-c3cncnc3)cnc2O[C@H]1CN(C)C(=O)CN1CCOCC1 as the molecule, how does the IC50 read?
**A.** 42.4 µM

**Q.** CCC(=O)N(C)C[C@@H]1Oc2cc(C#CC(C)(C)O)ccc2S(=O)(=O)N([C@@H](C)CO)C[C@H]1C was tested. Which IC50 did it give?
**A.** 28.7 µM

**Q.** How did the IC50 turn out when C[C@H]1CN([C@@H](C)CO)C(=O)c2cc(C#CC3(O)CCCC3)cnc2O[C@@H]1CN(C)Cc1cccnc1 was run?
**A.** > 70 µM (inactive)

**Q.** COc1ccccc1/C=N/NC(=S)NCc1ccco1 was tested. Which IC50 did it give?
**A.** 12.8 µM

**Q.** Which IC50 does the source give for CNC[C@@H]1OCCCC[C@@H](C)Oc2ccc(NC(=O)NC(C)C)cc2C(=O)N([C@@H](C)CO)C[C@H]1C here?
**A.** > 70 µM (inactive)

**Q.** With COC(=O)C1=C(C)N(Cc2ccccc2)C(=S)N[C@H]1c1cccc(F)c1 as the molecule, how does the IC50 read?
**A.** 13.7 µM

**Q.** How did the IC50 turn out when CC(NC(=O)COc1ccccc1C(C)(C)C)c1ccccc1 (stereo not given) was run?
**A.** 3.83 µM

**Q.** Which IC50 does the source give for COC(=O)C1=C(C)N(Cc2ccc(F)cc2)C(=S)NC1c1ccc(F)cc1 (stereo not given) here?
**A.** 22.7 µM

**Q.** With CCC(C)(C(=O)Nc1ccccc1C)N(C(=O)CNC(C)=O)c1ccccc1C (stereo not given) as the molecule, how does the IC50 read?
**A.** < 0.26 µM

**Q.** CO[C@@H]1CN(C)C(=O)c2cc(NC(=O)C3CCOCC3)ccc2OC[C@H](C)NC[C@@H]1C was tested. Which IC50 did it give?
**A.** 67.4 µM

**Q.** Which IC50 does the source give for CC(C)COc1ccc(CNC(=S)NCc2ccccc2)cc1 here?
**A.** 5.43 µM

**Q.** How did the IC50 turn out when COCC#Cc1cnc2c(c1)C(=O)N([C@@H](C)CO)C[C@H](C)[C@H](CN(C)C(=O)Nc1ccc(OC)cc1)O2 was run?
**A.** > 70 µM (inactive)

**Q.** For CN1c2ccc(Br)cc2[C@@H]2[C@@H](CCN2C(=O)Cc2cccnc2)[C@@H]1CO, which IC50 is on record?
**A.** 2.15 µM

— PubChem BioAssay AID686998 (Broad Institute, 2013)
